# Where “and” joins values, the source holds several entries; their conditions need not be identical. Equal entries are not always repeated. Where two headings read alike, the source gives them in different places.
# Experiments:
# [1] = test system: Arabidopsis thaliana; assay: High temperature stress resistance of Arabidopsis thaliana cultivated in allantoin-containing medium (Experiment 6); format: in vivo; details: 10 μM, 100 μM or 1,000 μM allantoin in ½ MS solid medium; 45° C. 105 minutes; grown 1 week
# Method: The wild-type (WT) line of Arabidopsis thaliana (L.) Heynh., accession Columbia-0 described in Experiment 1 was used.
# The ½ MS solid medium described in Experiment 1 (Table 1) was used (10 μM, 100 μM, or 1,000 μM allantoin was further added to the allantoin-supplemented group, allantoin was not added to the allantoin-free group, a deep sterilized petri dish No. 903 VALMARK; Ina-Optika Corporation).
# (5) In the petri dish, a circular accommodation part (a plane view) is divided into 2 semicircular compartments by a partition wall extended toward a diametrical direction. The allantoin-free ½ MS solid medium was accommodated in one of the compartments of the petri dish, the allantoin-supplemented ½ MS solid medium was accommodated in another compartment, and 15 seeds were sowed in each compartment (i.e., 30 seeds in total per petri dish) (FIG. 5A).
# (8) The resultant was transferred to a culture chamber and cultured therein at 22° C. under long-day conditions (light application for 16 hours under fluorescent light: 0.07 mmol photons […] s^−1) for 7 days. […]
# (10) Thereafter, the petri dish was cooled in an incubator at 23° C. for 10 to 15 minutes, and the plants were then allowed to grow again for 1 week under the conditions (8). […] The viability was evaluated on the basis of such phenomenon. […]
# [2] = test system: onion; assay: High temperature stress resistance of onion via allantoin application (Experiment 2); format: in vivo, onion (variety: Neoearth); details: for viability 3 days after the heat shock treatment: 1 mM allantoin 40 ml/pot 6 days after sowing
# Method: (§1) A 5-cm polypot was mounted on a balance dish BD-2 (AS ONE Corporation), 70 ml of vermiculite (Protoleaf Inc.) was introduced thereinto, 80 ml of culture soil (TAKII & CO., LTD.) was further introduced thereinto, 3 seeds of onion (variety: Neoearth; TAKII & CO., LTD.) were sowed at 3 positions, and 20 ml of vermiculite was further introduced thereinto, so as to cover the soil. Thereafter, 50 ml of tap water was supplied to the balance dish two times. The polypot (together with the balance dish) was mounted on a bat, and the resultant was then introduced into an incubator at 22° C. and 10,000 Lux for a light period of 12 hours and a dark period of 12 hours, so as to initiate cultivation. The day on which cultivation was initiated was designated as Day 0 after sowing. Germination was observed 5 days after sowing. While leaving 3 plants in each pot (i.e., a plant in each position), other plants were removed therefrom 6 days after sowing.
# Tap water or an aqueous solution of 1 mM allantoin was applied to each test group (40 ml/pot) 6 days after sowing (hereafter, referred to as the “water treatment group” or the “allantoin treatment group,” respectively). Tap water was applied to all the pots (40 ml/pot) 11 days after sowing. The pots mounted on the bats were introduced into the incubator 13 days after sowing (at the 2-true-leaf stage in the case of onions), and the plants were exposed to high temperature stress at 45° C. for 1 hour, 1.5 hours, and 2 hours. Soil in the pots was sufficiently humidified before and after high temperature stress application. After the completion of the high temperature stress treatment, the temperature in the incubator was cooled to 22° C., and cultivation was continued. Water was supplied 2 days after the heat shock treatment (40 ml/pot). Thereafter, water was supplied in an amount of 40 ml per pot at intervals of 2 days.
# (§2) The “viability” indicates the proportion of the number of survived plants relative to the number of plants subjected to the heat shock treatment. The viability was calculated by regarding plants that would no longer grow (i.e., the plants with the youngest leaves suffering from physical damage, such as whitening, withering, or curling of leaves) as plants that are not survived.
# [3] = test system: DREB2A (AGI code: AT5G05410); assay: DREB2A gene expression, quantitative PCR, cultivation in allantoin-containing medium (Experiment 5); format: in vivo, Arabidopsis thaliana; details: 1 mM allantoin in ½ MS solid medium, 14 days, leaves and stems, reference gene ACT2
# Method: (§3) Seeds of wild-type Arabidopsis thaliana line (Columbia-0) were sterilized in 2.5% (v/v) sodium hypochlorite, sowed in the ½ MS solid medium described in Experiment 1 (Table 1) (the medium was supplemented with 1 mM allantoin; allantoin was not added to the control group: a deep petri dish with a diameter of 90 mm and a height of 20 mm), and then allowed to grow under long-day conditions (in an incubator at 5,000 Lux, a light period of 16 hours and a dark period of 8 hours, 22° C.) for 14 days. Using a commercialized kit, RNA extraction from leaves and stems of Arabidopsis thaliana (NucleoSpin RNAII, MACHEREY-NAGEL), reverse transcription (ReverTra Ace qPCR RT Master Mix, TOYOBO), and quantitative PCR (KAPA SYBR FAST qPCR Master Mix, KAPABIOSYSTEMS) were carried out. As a reference gene, ACT2 (AGI code: AT3G18780) was used. As a result, the relative expression level of DREB2A (AGI code: AT5G05410; SEQ ID NO: 1) and that of HSF3 (AGI code: AT5G16820; SEQ ID NO: 2) were 2.2 times and […] greater than the expression level of the control group, respectively.
# [4] = test system: wild-type Arabidopsis thaliana; details: allantoin administered to wild-type Arabidopsis thaliana; cited from earlier work
# [5] = test system: creeping bentgrass; format: in vivo, creeping bentgrass (variety: 007); details: measured Day 15
# Method: (§4) A polypot with 5 cm each side was placed on a balance dish BD-2 (AS ONE Corporation), and 120 ml of joint- and bed-soil for turf grass (TACHIKAWA HEIWA NOUEN CO., LTD.) was then added into the pot. Thereafter, 140 mg of seeds of creeping bentgrass (variety: 007, Power Shop FUJI) was seeded on the soil, and 3 ml of the soil was further added onto the seeds. Thereafter, 10 ml of tap water was supplied to the balance dish. The polypot (together with the balance dish) was placed on a tray, and was then placed in an artificial climate chamber having a temperature of 20° C., a light intensity of 300 μmol/m^2/s, a light period of 16 hours, a dark period of 8 hours, and a humidity of 70%, and thereafter, cultivation was initiated. The day on which cultivation was initiated was defined as Day 0 after sowing. On Day 2 after sowing, 40 ml/pot tap water was applied to all pots. On Day 5 after sowing, germination was confirmed.
# On Days 6, 11 and 13 after sowing, tap water (hereinafter referred to as a “water group”) or a 0.5 or 1 mM allantoin aqueous solution (hereinafter referred to as an “allantoin group”) was applied, in an amount of 40 ml/pot, to individual experiment groups. On and after Day 13 after sowing, a difference was found in the growth of turf glasses among individual groups. On Day 15, 20 turf grasses were selected from each pot, and the grass height and fresh weight of each grass were then measured. Based on the measured values, a mean value was calculated.
# [6] = test system: creeping bentgrass; format: in vivo, creeping bentgrass (variety: 007); details: 1 mM allantoin 40 ml/pot on Days 7, 10 and 13; measured Day 13 after sowing; mean of 20 grasses per pot
# Method: as §4
# On Days 7, 10 and 13 after sowing, tap water (hereinafter referred to as a “water group”) or a 1 mM allantoin aqueous solution (hereinafter referred to as an “allantoin group”) was applied, in an amount of 40 ml/pot, to individual experiment groups. […]
# On Day 13 after sowing, 20 turf grasses were selected from each pot, and the grass height and fresh weight of each grass were then measured. Based on the measured values, a mean value was calculated. […]
# [7] = test system: rice (Koshihikari); assay: Leaf Area Index of rice in paddy field after allantoin application to seedlings (Experiment 9); format: in vivo; details: for LAI (Leaf Area Index): 1 mM allantoin 3 L per nursery box on Day 26 after sowing, two plant bodies
# Method: A 1 mM allantoin aqueous solution or water was applied in an amount of 3 L each to the seedlings of rice (Koshihikari) on Day 26 after sowing (the size of a nursery box: 280×580×28 (mm) (depth×width×height)). A total of the applied dose of allantoin per unit area, which was applied for a single application in Experiment 9, was 3.0 g/m^2 (1.05 g/m^2 relative to allantoin nitrogen) in the 1 mM allantoin group.
# Twelve hours after the application, the seedlings were planted in a paddy field, and were then allowed to grow for 55 days and for 63 days. Thereafter, using a leaf area measurement apparatus LAI-2200 (MEIWAFOSIS CO., LTD.), Leaf Area Index (LAI) which indicates the leaf area under conditions in which the plant still grows in the field, was non-destructively measured. LAI was obtained from two plant bodies in each of the allantoin group and the water group (n=2).
# [8] = test system: HSF3 (AGI code: AT5G16820); assay: HSF3 gene expression, quantitative PCR, cultivation in allantoin-containing medium (Experiment 5); format: in vivo, Arabidopsis thaliana; details: 1 mM allantoin in ½ MS solid medium, 14 days, leaves and stems, reference gene ACT2
# Method: as §3
# [9] = test system: Brassica chinensis komatsuna; assay: High temperature stress resistance of Brassica chinensis komatsuna via allantoin application (Experiment 3); format: in vivo, Brassica chinensis komatsuna (variety: Rakuten); details: 1 mM allantoin 40 ml/pot 6 and 13 days after sowing, 45° C. for 1 hour
# Method: as §1, with “Brassica chinensis komatsuna” for “onion”, “Rakuten,” for “Neoearth;”, “the center of the pot,” for “3 positions,”, “bat” for “bat,”, “and” for “and the resultant was then”, “sowing.” for “sowing. Germination was observed 5 days after sowing. While leaving 3 plants in each pot (i.e., a plant in each position), other plants were removed therefrom 6 days after sowing.”
# Germination was observed 3 days after sowing. While leaving one plant in each pot, other plants were removed therefrom 6 days after sowing. […]
# as §2
# [10] = test system: rice; details: rice seeds immersed in 300 mg/L allantoin solution for 24 hours; cited from earlier work
# [11] = test system: Arabidopsis thaliana; details: application of allantoin to Arabidopsis thaliana; cited from earlier work
# [12] = 0.5 mM allantoin 40 ml/pot on Days 6, 11 and 13
# [13] = 1 mM allantoin 40 ml/pot on Days 6, 11 and 13
compound,measurement,setting,value
NC(=O)NC1NC(=O)NC1=O (racemic) [Allantoin],resistance to high temperature stress (viability),[1],has resistance to high temperature stress
same,viability 3 days after the heat shock treatment,[2]; 45° C. for 1 hour,66.7%
same,viability 3 days after the heat shock treatment,[2]; 45° C. for 1.5 hours,33.3%
same,viability 3 days after the heat shock treatment,[2]; 45° C. for 2 hours,11.1%
same,viability 8 days after heat shock treatment,"[2]; 1 mM allantoin, 45° C. for 1, 1.5 and 2 hours, compared with 3 days",same viability
same,relative expression level of DREB2A versus control group,[3],2.2 times
same,production of abscisic acid,[4],promoted
same,Fresh weight,[5]; [12],3 mg
same,Grass height,[5]; [12],5.8 cm
same,Fresh weight,[5]; [13],3.1 mg
same,Grass height,[5]; [13],5.9 cm
same,Fresh weight,[6],2.9 mg
same,Grass height,[6],5.6 cm
same,LAI (Leaf Area Index),[7]; 55th day in paddy field,1.94 m^2/m^2 and 2.04 m^2/m^2
same,LAI (Leaf Area Index),[7]; 63rd day in paddy field,2.71 m^2/m^2 and 2.82 m^2/m^2
same,LAI smaller than the LAI of the water group,[7]; 55th day,approximately 25%
same,LAI smaller than the LAI of the water group,[7]; 63rd day,approximately 10%
same,relative expression level of HSF3 versus control group,[8],0.7 times
same,viability 7 days after the heat shock treatment,[9],100%
same,"height of the seedlings, number of roots and fresh weight of the seedlings versus water control",[10],increased
same,plant growth,[11],promoted

# Source: patent US10182569B2, “Composition comprising allantoin and method of applying allantoin to a plant” (Kaneka Corporation, priority 2016, dated 2019)
